Assays:
[1] = system: Phytophthora infestans conidia; type: in vivo; conditions: @ 250 ppm; tomato (Bonny Best) seedlings sprayed, inoculated one day later; approximately 7 days; relative to untreated check plants
[2] = system: Alternaria solani conidia; conditions: in vivo
[3] = system: Septoria apii; type: in vivo; conditions: @ 250 ppm; celery (Utah) plants; approximately 14 days; relative to untreated check plants
[4] = system: Erysiphe polygoni; conditions: in vivo
[5] = system: fungi; conditions: cited from earlier work

Compound	% Control, Tomato Late Blight [1] [%]	% Control, Tomato Early Blight [2] [%]	% Control, Celery Late Blight [3] [%]	% Control, Bean Powdery Mildew [4] [%]	fungicidal activity [5]
CC1(C)C(=O)N(SC(Cl)(Cl)Cl)C(=O)c2ccccc21 [Compound 1, N-(trichloromethylthio)-4,4-dimethyl homophthalimide]	95	33	50	96	–
CC1(C)C(=O)NC(=O)c2ccccc21 [Compound 3, 4,4-dimethyl homophthalimide]	0	0	0	0	–
O=C1c2ccccc2C(=O)N1SC(Cl)(Cl)Cl [N-(trichloromethylthio)phthalimide]	–	–	–	–	having fungicidal activity
